Data: patent publication US20240336642A1 (The General Hospital Corporation, priority 2021, published 2024)
Structures can show the parent of a compound that is named as a salt.

Target: h12/15-LOX (Homo sapiens (Human), UniProt P16050)
Experiment: 12/15-LOX enzyme inhibition IC50 assay (Examples 1 and 2)
Format: biochemical
Settings: for Emax: h12/15-LOX, read-out: Max % inhibition
Protocol: Enzyme was then added to the cuvettes. […] The % inhibition for each test compound concentration were calculated as follows: […]

h12/15-LOX, sequence (P16050 whole entry): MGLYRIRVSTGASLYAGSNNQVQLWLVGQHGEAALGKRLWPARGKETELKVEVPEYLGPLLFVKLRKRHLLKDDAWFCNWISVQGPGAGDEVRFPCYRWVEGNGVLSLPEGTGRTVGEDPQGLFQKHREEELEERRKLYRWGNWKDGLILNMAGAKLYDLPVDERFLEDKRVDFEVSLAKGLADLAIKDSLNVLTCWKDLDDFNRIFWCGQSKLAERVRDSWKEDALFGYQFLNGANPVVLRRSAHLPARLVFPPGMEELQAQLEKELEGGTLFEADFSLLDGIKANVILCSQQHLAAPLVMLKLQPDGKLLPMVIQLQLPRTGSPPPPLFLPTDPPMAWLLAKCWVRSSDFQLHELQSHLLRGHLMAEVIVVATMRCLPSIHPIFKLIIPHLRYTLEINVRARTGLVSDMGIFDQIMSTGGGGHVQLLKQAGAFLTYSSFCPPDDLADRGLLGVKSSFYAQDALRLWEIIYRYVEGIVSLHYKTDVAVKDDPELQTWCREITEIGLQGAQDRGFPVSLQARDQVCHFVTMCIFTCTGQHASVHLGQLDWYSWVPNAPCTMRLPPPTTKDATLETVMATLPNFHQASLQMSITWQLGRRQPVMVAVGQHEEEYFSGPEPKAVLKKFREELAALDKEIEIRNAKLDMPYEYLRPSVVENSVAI

Row | IC50 [nM] | Emax [%] | SMILES
1 | > 20000 |  | CN(C)CCCCCC(=O)N(C)c1oc(-c2cc(Cl)cc(Cl)c2Cl)nc1C#N [Compound 61, N-(4-cyano-2-(2,3,5-trichlorophenyl)oxazol-5-yl)-6-(dimethylamino)-N-methylhexanamide hydrochloride]
2 | 8300 | 100 | CN(C)CCCCC(=O)N(C)c1oc(-c2cc(Cl)cc(Cl)c2Cl)nc1C#N [Compound 62, N-(4-Cyano-2-(2,3,5-trichlorophenyl)oxazol-5-yl)-5-(dimethylamino)-N-methylpentanamide hydrochloride]
3 | > 20000 |  | CN(C)CCCCCC(=O)Nc1oc(-c2cc(Cl)cc(Cl)c2Cl)nc1C#N [Compound 63, N-(4-cyano-2-(2,3,5-trichlorophenyl)oxazol-5-yl)-6-(dimethylamino) hexanamide hydrochloride]
4 | > 20000 |  | CN(C)CCCCC(=O)Nc1oc(-c2cc(Cl)cc(Cl)c2Cl)nc1C#N [Compound 64, N-(4-Cyano-2-(2,3,5-trichlorophenyl)oxazol-5-yl)-5-(dimethylamino)pentanamide hydrochloride]
5 | > 20000 |  | CN(C)CCCC(=O)Nc1oc(-c2cc(Cl)cc(Cl)c2Cl)nc1C#N [Compound 65, N-(4-Cyano-2-(2,3,5-trichlorophenyl)oxazol-5-yl)-4-(dimethylamino)butanamide hydrochloride]
6 | > 20000 |  | CN(C)CCCNC(=O)N(C)c1oc(-c2cc(Cl)cc(Cl)c2Cl)nc1C#N [Compound 66, 1-(4-cyano-2-(2,3,5-trichlorophenyl)oxazol-5-yl)-3-(3-(dimethylamino)propyl)-1-methylurea hydrochloride]
7 | > 20000 |  | CN(C)CCCNC(=O)Nc1oc(-c2cc(Cl)cc(Cl)c2Cl)nc1C#N [Compound 67, 1-(4-cyano-2-(2,3,5-trichlorophenyl)oxazol-5-yl)-3-(3-(dimethylamino)propyl) urea hydrochloride]
8 | > 20000 |  | CN(c1oc(-c2cc(Cl)cc(Cl)c2Cl)nc1C#N)P(=O)(O)O [Compound 68, (4-cyano-2-(2,3,5-trichlorophenyl)oxazol-5-yl)(methyl)phosphoramidic acid]
9 | 330 | 100 | CCOCCOCCNc1oc(-c2cc(Cl)cc(Cl)c2Cl)nc1C#N [Compound 69, 5-((2-(2-Ethoxyethoxy)ethyl)amino)-2-(2,3,5-trichlorophenyl)oxazole-4-carbonitrile]
10 | 1100 | 110 | N#Cc1nc(-c2cc(Cl)cc(Cl)c2Cl)oc1NCCOCCOCCF [Compound 70, 5-((2-(2-(2-Fluoroethoxy)ethoxy)ethyl)amino)-2-(2,3,5-trichlorophenyl)oxazole-4-carbonitrile]
11 | 160 | 95 | N#Cc1nc(-c2cc(Cl)cc(Cl)c2Cl)oc1NCCOCCOCC(F)(F)F [Compound 71, 2-(2,3,5-Trichlorophenyl)-5-((2-(2-(2,2,2-trifluoroethoxy)ethoxy)ethyl)amino)oxazole-4-carbonitrile]
12 | > 20000 |  | N#Cc1nc(-c2cc(Cl)cc(Cl)c2Cl)oc1NCCOCCN1CC(F)(F)C1 [Compound 72, 5-((2-(2-(3,3-Difluoroazetidin-1-yl)ethoxy)ethyl)amino)-2-(2,3,5-trichlorophenyl)oxazole-4-carbonitrile]
13 | 470 | 70 | CN(CCOCCNc1oc(-c2cc(Cl)cc(Cl)c2Cl)nc1C#N)CC(F)(F)F [Compound 73, 5-((2-(2-(Methyl(2,2,2-trifluoroethyl)amino)ethoxy)ethyl)amino)-2-(2,3,5-trichlorophenyl)oxazole-4-carbonitrile]
14 | > 20000 |  | N#Cc1nc(-c2cc(Cl)cc(Cl)c2Cl)oc1NCCOCCN1CCCC(F)C1 (centres unmarked) [Compound 74, 5-((2-(2-(3-Fluoropiperidin-1-yl)ethoxy)ethyl)amino)-2-(2,3,5-trichlorophenyl)oxazole-4-carbonitrile]
15 | 1100 | 61 | N#Cc1nc(-c2cc(Cl)cc(Cl)c2Cl)oc1NCCOCCN1CCCC(F)(F)C1 [Compound 75, 5-((2-(2-(3,3-Difluoropiperidin-1-yl)ethoxy)ethyl)amino)-2-(2,3,5-trichlorophenyl)oxazole-4-carbonitrile]
16 | 250 | 74 | N#Cc1nc(-c2cc(Cl)cc(Cl)c2Cl)oc1NCCOCCOc1cccnc1 [Compound 76, 5-((2-(2-(Pyridin-3-yloxy)ethoxy)ethyl)amino)-2-(2,3,5-trichlorophenyl)oxazole-4-carbonitrile]
17 | > 20000 |  | N#Cc1nc(-c2cc(Cl)cc(Cl)c2Cl)oc1NCCOCCN1CC(F)C1 [Compound 77, 5-((2-(2-(3-Fluoroazetidin-1-yl)ethoxy)ethyl)amino)-2-(2,3,5-trichlorophenyl)oxazole-4-carbonitrile]
18 | > 20000 | 49 | N#Cc1nc(-c2cc(Cl)cc(Cl)c2Cl)oc1NCCOCCN1CCC(F)C1 (centres unmarked) [Compound 78, 5-((2-(2-(3-Fluoropyrrolidin-1-yl)ethoxy)ethyl)amino)-2-(2,3,5-trichlorophenyl)oxazole-4-carbonitrile]
19 | > 20000 | 17 | N#Cc1nc(-c2cc(Cl)cc(Cl)c2Cl)oc1NCCOCCOc1cccnn1 [Compound 79, 5-((2-(2-(Pyridazin-3-yloxy)ethoxy)ethyl)amino)-2-(2,3,5-trichlorophenyl)oxazole-4-carbonitrile]

Row | IC50 [nM] | Emax [%] | SMILES
20 | > 20000 |  | N#Cc1nc(-c2cc(Cl)cc(Cl)c2Cl)oc1NCCOCCN1CCC(F)CC1 [Compound 80, 5-((2-(2-(4-Fluoropiperidin-1-yl)ethoxy)ethyl)amino)-2-(2,3,5-trichlorophenyl)oxazole-4-carbonitrile]
21 | 260 | 95 | N#Cc1nc(-c2cc(Cl)cc(Cl)c2Cl)oc1NCCOCCNc1ccccc1 [Compound 81, 5-((2-(2-(Phenylamino)ethoxy)ethyl)amino)-2-(2,3,5-trichlorophenyl)oxazole-4-carbonitrile]
22 | 360 | 82 | N#Cc1nc(-c2cc(Cl)cc(Cl)c2Cl)oc1NCCOCCOc1cncnc1 [Compound 82, 5-((2-(2-(Pyrimidin-5-yloxy)ethoxy)ethyl)amino)-2-(2,3,5-trichlorophenyl)oxazole-4-carbonitrile]
23 | 180 | 61 | Cc1cc(OCCOCCNc2oc(-c3cc(Cl)cc(Cl)c3Cl)nc2C#N)cc(C)n1 [Compound 83, 5-((2-(2-((2,6-Dimethylpyridin-4-yl)oxy)ethoxy)ethyl)amino)-2-(2,3,5-trichlorophenyl)oxazole-4-carbonitrile]
24 | 490 | 68 | N#Cc1nc(-c2cc(Cl)cc(Cl)c2Cl)oc1NCCOCCOc1ccncc1F [Compound 84, 5-((2-(2-((3-Fluoropyridin-4-yl)oxy)ethoxy)ethyl)amino)-2-(2,3,5-trichlorophenyl)oxazole-4-carbonitrile]
25 |  | 92 | COCCOc1ccc(COCC#CCNc2oc(-c3cc(Cl)cc(Cl)c3Cl)nc2C#N)cc1 [Compound 85]
26 |  | 100 | N#Cc1nc(-c2cc(Cl)cc(Cl)c2Cl)oc1NCC#CCOCc1ccc(CCN2CCOCC2)cc1 [Compound 86]
27 |  | 94 | N#Cc1nc(-c2cc(Cl)cc(Cl)c2Cl)oc1NCC#CCOCc1ccc(OCCN2CCOCC2)cc1 [Compound 87]
28 | 81 | 74 | N#Cc1nc(-c2cc(Cl)cc(Cl)c2Cl)oc1NCC#CCOCc1ccncc1 [Compound 88, 5-((4-(Pyridin-4-ylmethoxy)but-2-yn-1-yl)amino)-2-(2,3,5-trichlorophenyl)oxazole-4-carbonitrile]
29 | 1300 | 100 | N#Cc1nc(-c2cc(Cl)cc(Cl)c2Cl)oc1NCC#CCOCc1ccc(C(=O)O)cc1 [Compound 89, 4-(((4-((4-Cyano-2-(2,3,5-trichlorophenyl)oxazol-5-yl)amino)but-2-yn-1-yl)oxy)methyl)benzoic acid]
30 | > 20000 |  | CN(CCOCCNc1oc(-c2cc(Cl)cc(Cl)c2Cl)nc1C#N)c1ccncc1 [Compound 90, 5-((2-(2-(Methyl(pyridin-4-yl)amino)ethoxy)ethyl)amino)-2-(2,3,5-trichlorophenyl)oxazole-4-carbonitrile]
31 | > 20000 |  | N#Cc1nc(-c2cc(Cl)cc(Cl)c2Cl)oc1NCCOCCNc1ccncc1 [Compound 91, 5-((2-(2-(Pyridin-4-ylamino)ethoxy)ethyl)amino)-2-(2,3,5-trichlorophenyl)oxazole-4-carbonitrile]
32 | 8800 | 86 | N#Cc1nc(-c2cc(Cl)cc(Cl)c2Cl)oc1NCCOCCN1CCC(F)(F)C1 [Compound 92, 5-((2-(2-(3,3-Difluoropyrrolidin-1-yl)ethoxy)ethyl)amino)-2-(2,3,5-trichlorophenyl)oxazole-4-carbonitrile]
33 |  | 98 | N#Cc1nc(-c2cc(Cl)cc(Cl)c2Cl)oc1NCCOCCNCCF [Compound 93]
34 | 300 | 77 | N#Cc1nc(-c2cc(Cl)cc(Cl)c2Cl)oc1NCCOCCNCC(F)(F)F [Compound 94, 2-(2,3,5-Trichlorophenyl)-5-((2-(2-((2,2,2-trifluoroethyl)amino)ethoxy)ethyl)amino)oxazole-4-carbonitrile]
35 | 260 | 83 | CN(CCOCCNc1oc(-c2cc(Cl)cc(Cl)c2Cl)nc1C#N)c1ccccc1 [Compound 95, 5-((2-(2-(Methyl(phenyl)amino)ethoxy)ethyl)amino)-2-(2,3,5-trichlorophenyl)oxazole-4-carbonitrile]
36 | 4400 | 93 | CN(CCF)CCOCCNc1oc(-c2cc(Cl)cc(Cl)c2Cl)nc1C#N [Compound 96, 5-((2-(2-((2-Fluoroethyl)(methyl)amino)ethoxy)ethyl)amino)-2-(2,3,5-trichlorophenyl)oxazole-4-carbonitrile]
37 | 110 | 68 | N#Cc1nc(-c2cc(Cl)cc(Cl)c2Cl)oc1NCCOCCOc1ccncc1 [Compound 97, 5-((2-(2-(Pyridin-4-yloxy)ethoxy)ethyl)amino)-2-(2,3,5-trichlorophenyl)oxazole-4-carbonitrile]
38 | 3100 | 79 | N#Cc1nc(-c2cc(Cl)cc(Cl)c2Cl)oc1NCCOCCN1CCC(F)(F)CC1 [Compound 98, 5-((2-(2-(4,4-Difluoropiperidin-1-yl)ethoxy)ethyl)amino)-2-(2,3,5-trichlorophenyl)oxazole-4-carbonitrile]
